Laboratory results taken from the NIST ThermoML archive (doi:10.1016/j.jct.2015.07.028).

Assay: molar heat capacity at saturation pressure
Settings: Small (less than 1 g) adiabatic calorimetry

C=CC(C)(C)O [2-methyl-3-buten-2-ol]
molar heat capacity [J/K/mol]
Settings	Crystal 1	Crystal 2
5 K	–	0.3244
5.363 K	–	0.4026
5.571 K	–	0.4523
5.832 K	–	0.524
6.097 K	–	0.6053
6.395 K	–	0.7063
6.727 K	–	0.8287
7.065 K	–	0.9656
7.409 K	–	1.117
7.759 K	–	1.284
8.114 K	–	1.466
8.474 K	–	1.662
8.837 K	–	1.874
9.202 K	–	2.099
9.571 K	–	2.338
9.942 K	–	2.587
10 K	–	2.631
10.42 K	–	2.931
11.01 K	–	3.375
11.6 K	–	3.843
12.19 K	–	4.339
12.79 K	–	4.858
13.39 K	–	5.395
14 K	–	5.954
14.61 K	–	6.523
15 K	–	6.921
15.22 K	–	7.118
15.95 K	–	7.872
16.79 K	–	8.742
17.63 K	–	9.598
18.48 K	–	10.46
19.32 K	–	11.32
20 K	–	12.04
20.18 K	–	12.2
21.37 K	–	13.46
22.9 K	–	15.06
24.44 K	–	16.66
25 K	–	17.22
25.98 K	–	18.24
27.53 K	–	19.75
28.81 K	–	20.98
30 K	–	22.12
30.24 K	–	22.33
31.96 K	–	23.92
33.85 K	–	25.59
35 K	–	26.55
35.75 K	–	27.18
37.65 K	–	28.7
39.55 K	–	30.18
40 K	–	30.53
41.55 K	–	31.7
43.65 K	–	33.27
45 K	–	34.27
45.75 K	–	34.79
47.85 K	–	36.31
49.95 K	–	37.78
50 K	–	37.8
52.05 K	–	39.21
54.16 K	–	40.59
56.27 K	–	41.96
58.39 K	–	43.29
60 K	–	44.33
60.51 K	–	44.64
62.64 K	–	45.97
64.76 K	–	47.34
66.88 K	–	48.71
69.01 K	–	50.1
70 K	–	50.7
71.24 K	–	51.62
73.58 K	–	53.27
75.92 K	–	55.14
77.87 K	–	57.21
78.23 K	–	57.58
78.27 K	–	57.34
78.34 K	–	57.57
79.01 K	–	58.22
79.1 K	–	58.39
79.23 K	–	58.44
79.68 K	–	58.95
79.83 K	–	59.11
80 K	–	57.08
80.23 K	–	59.74
80.33 K	–	59.84
80.34 K	–	59.8
80.38 K	–	59.82
80.93 K	–	60.61
81.01 K	–	60.76
81.36 K	–	61.46
81.48 K	–	61.53
81.67 K	–	61.8
82.03 K	–	62.46
82.27 K	–	62.81
82.34 K	–	62.96
82.49 K	–	63.36
82.57 K	–	63.46
83 K	–	64.02
83.12 K	–	64.33
83.61 K	–	65.12
83.66 K	–	65.08
84.19 K	–	66.18
84.2 K	–	65.98
84.31 K	–	66.19
84.72 K	–	67.2
84.74 K	–	67.26
84.97 K	–	67.69
85.28 K	–	68.9
85.62 K	–	69.64
85.81 K	–	71.17
85.82 K	–	71.29
86.07 K	–	73.72
86.26 K	–	73.39
86.33 K	–	74.69
88.1 K	61.32	62.25
89.48 K	65.12	–
89.49 K	64.37	–
89.61 K	64.85	–
90 K	62.35	–
90.04 K	63.82	–
90.18 K	63.5	–
90.62 K	63.44	–
90.78 K	63.53	–
90.87 K	63.45	–
91.19 K	63.49	–
91.32 K	63.69	–
91.57 K	63.46	–
91.77 K	63.59	–
91.97 K	63.75	–
92.27 K	63.73	–
92.34 K	63.78	–
92.92 K	64.01	–
92.97 K	64.05	–
93.15 K	64.24	–
93.36 K	64.34	–
93.5 K	64.26	–
93.67 K	64.43	–
94.08 K	64.54	–
94.35 K	64.76	–
94.37 K	64.82	–
94.67 K	64.85	–
95.08 K	65.12	–
95.25 K	65.18	–
95.42 K	65.33	–
95.55 K	65.34	–
96.34 K	65.8	–
96.44 K	65.84	–
96.75 K	65.99	–
97.48 K	66.4	–
97.95 K	66.62	–
98.15 K	66.74	–
98.26 K	66.77	–
99.15 K	67.27	–
99.55 K	67.5	–
99.97 K	67.73	–
100 K	67.72	–
101.8 K	68.7	–
101.81 K	68.72	–
103.63 K	69.68	–
104.26 K	70.06	–
105.46 K	70.68	–
106.72 K	71.41	–
107.3 K	71.7	–
109.14 K	72.73	–
109.18 K	72.79	–
110 K	73.25	–
110.98 K	73.78	–
111.65 K	74.18	–
112.82 K	74.82	–
114.12 K	75.6	–
114.67 K	75.87	–
116.51 K	76.95	–
116.6 K	77.03	–
118.36 K	78.04	–
119.07 K	78.49	–
120 K	78.98	–
120.2 K	79.15	–
121.55 K	79.98	–
122.05 K	80.25	–
123.9 K	81.37	–
124.02 K	81.49	–
125.74 K	82.53	–
126.49 K	83.07	–
127.59 K	83.73	–
128.96 K	84.71	–
129.43 K	85.04	–
130 K	85.52	–
131.26 K	86.38	–
131.43 K	86.54	–
133.1 K	87.73	–
133.88 K	88.39	–
134.93 K	89.13	–
136.33 K	90.2	–
136.76 K	90.46	–
138.58 K	91.75	–
138.78 K	91.98	–
140 K	92.84	–
140.4 K	93.1	–
141.22 K	93.76	–
142.22 K	94.49	–
143.66 K	95.62	–
144.04 K	95.9	–
145.85 K	97.31	–
146.09 K	97.56	–
147.65 K	98.82	–
148.5 K	99.58	–
149.45 K	100.3	–
150 K	100.8	–
150.92 K	101.6	–
151.37 K	102	–
153.32 K	103.8	–
153.4 K	103.9	–
155.42 K	105.7	–
155.71 K	106	–
157.44 K	107.7	–
158.09 K	108.4	–
159.45 K	109.7	–
160 K	110.3	–
160.45 K	110.8	–
161.45 K	111.8	–
162.8 K	113.2	–
163.44 K	113.9	–
165.14 K	115.7	–
165.42 K	116	–
167.39 K	118.2	–
167.47 K	118.3	–
